Data as given in PubChem BioAssay AID434987 (Southern Research Specialized Biocontainment Screening …, 2010).
Active and inactive are the calls of the source. How the calls were made is not given here.

Test system: M. tuberculosis H37Rv growth inhibition with meropenem
Assay: dose response, H37Rv, with and without meropenem (AID 434987);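 further: growth over 7 days at 37 °C before Alamar Blue read on day 9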
[1] = M. tuberculosis H37Rv growth inhibition, measured here: IC50 without meropenem
[2] = M. tuberculosis H37Rv growth inhibition, measured here: IC90 without meropenem
[3] = measured here: IC90 with meropenem

`CCn1c(=O)n(CC)c2cc(N3CCCC3)c(NC(=O)c3cc(Br)ccc3OC)cc21` was tested. Which IC50 did it give?
The IC50 was > 100 µM (inactive).

And the IC50 [1]?
The IC50 was greater than 100 µM.

What about the IC90 [2] of the same compound?
The IC90 was greater than 100 µM.

And the IC90 [3]?
The IC90 was greater than 100 µM.

`Cc1ccc(-c2[nH][nH]c(=O)c(=O)c2N=Nc2ccccc2)cc1` was tested. Which IC50 did it give?
The IC50 was 4.12 µM.

What about the IC50 [1] of the same compound?
The IC50 was 51.7 µM.

And the IC90 [2]?
Its IC90 is greater than 100 µM.

And the IC90 [3]?
Its IC90 is 86.2 µM.

For `Cc1cc(NC(=O)COc2nnc(-c3ccccc3)c3ccccc23)no1`, which IC50 is on record?
Its IC50 is 14 µM.

What about the IC50 [1] of the same compound?
The IC50 was greater than 100 µM.

What about the IC90 [2] of the same compound?
Its IC90 is greater than 100 µM.

And the IC90 [3]?
Its IC90 is greater than 25 µM.

`CCC(=O)Oc1oc(-c2ccccc2)nc1C=Nc1ccc(C)cc1` was tested. Which IC50 did it give?
Its IC50 is > 100 µM (inactive).

And the IC50 [1]?
Its IC50 is greater than 100 µM.

What about the IC90 [2] of the same compound?
Its IC90 is greater than 100 µM.

And the IC90 [3]?
Its IC90 is greater than 100 µM.

How did the IC50 turn out when `CCn1cc(C(=O)O)c(=O)c2cc(F)c(N3CCN(C(=S)NC(=O)c4ccccc4C)CC3)cc21` was run?
Its IC50 is 10.9 µM (inactive).

And the IC50 [1]?
The IC50 was 19.5 µM.

And the IC90 [2]?
The IC90 was 28.3 µM.

What about the IC90 [3] of the same compound?
The IC90 was 16 µM.

Which results are given for `O=C(COC(=O)c1ccc([N+](=O)[O-])s1)NCc1ccccc1`?
IC50: 18.3 µM (inactive); IC50 [1]: 34.8 µM; IC90 [2]: > 100 µM; IC90 [3]: 39.4 µM

Which results are given for `C=CCNC(=S)NC(=O)c1csc([N+](=O)[O-])c1`?
IC50: 27.8 µM (inactive); IC50 [1]: 49 µM; IC90 [2]: > 50 µM; IC90 [3]: > 100 µM

What does the source list for `Cc1oc(C(C)(C)C)cc1C(=O)Nc1ccc2c(c1)OCCO2`?
IC50: > 100 µM (inactive); IC50 [1]: > 100 µM; IC90 [2]: > 100 µM; IC90 [3]: > 100 µM

What does the source list for `CCc1nc2scc(-c3cccs3)c2c(=O)o1`?
IC50: > 100 µM (inactive); IC50 [1]: > 100 µM; IC90 [2]: > 100 µM; IC90 [3]: > 100 µM

How did the IC50 turn out when `O=C(c1cc2c(s1)CCCC2)n1cccn1` was run?
The IC50 was 93.4 µM (inactive).

What about the IC50 [1] of the same compound?
Its IC50 is greater than 100 µM.

What about the IC90 [2] of the same compound?
Its IC90 is greater than 100 µM.

And the IC90 [3]?
Its IC90 is greater than 100 µM.

For `CCCC(C(=O)N1CCOCC1)N1C(=O)C2C3C=CC(C3)C2C1=O` (configuration not stated), which IC50 is on record?
The IC50 was > 100 µM (inactive).

What about the IC50 [1] of the same compound?
The IC50 was greater than 100 µM.

What about the IC90 [2] of the same compound?
Its IC90 is greater than 100 µM.

What about the IC90 [3] of the same compound?
The IC90 was greater than 100 µM.

With `Cc1c(-c2ccccc2)sc(Br)c1C(=O)N1CCOCC1` as the compound, how does the IC50 read?
The IC50 was > 100 µM (inactive).

And the IC50 [1]?
The IC50 was greater than 100 µM.

And the IC90 [2]?
Its IC90 is greater than 100 µM.

What about the IC90 [3] of the same compound?
The IC90 was greater than 100 µM.

With `CCOC(=O)c1ccccc1NC(=O)C1COc2ccccc2O1` (configuration not stated) as the compound, how does the IC50 read?
Its IC50 is 12.1 µM.

What about the IC50 [1] of the same compound?
The IC50 was 36.2 µM.

And the IC90 [2]?
The IC90 was greater than 100 µM.

What about the IC90 [3] of the same compound?
Its IC90 is greater than 100 µM.

Which results are given for `O=C(CN1CCN(S(=O)(=O)c2ccc(F)cc2)CC1)Nc1ccc2c(c1)OCCO2`?
IC50: 19.1 µM; IC50 [1]: 88.2 µM; IC90 [2]: > 100 µM; IC90 [3]: > 100 µM

For `Cc1c2c(nc3c(C(=O)NC4CCCC4)cnn13)CCCC2`, which IC50 is on record?
The IC50 was 73.4 µM (inactive).

And the IC50 [1]?
Its IC50 is greater than 100 µM.

And the IC90 [2]?
The IC90 was greater than 100 µM.

What about the IC90 [3] of the same compound?
Its IC90 is greater than 100 µM.

What does the source list for `CCCCCNCc1cccc(Br)c1`?
IC50: 48.5 µM (inactive); IC50 [1]: > 100 µM; IC90 [2]: > 100 µM; IC90 [3]: > 100 µM

For `Cc1cccc(OCc2nc(-c3ccccn3)n[nH]2)c1`, which IC50 is on record?
Its IC50 is 3.43 µM.

What about the IC50 [1] of the same compound?
The IC50 was 22.5 µM.

And the IC90 [2]?
Its IC90 is 25.6 µM.

And the IC90 [3]?
Its IC90 is 7.37 µM.

Which IC50 does the source give for `S=C(NN=C1C2CC3CC(C2)CC1C3)Nc1ccccc1` here?
Its IC50 is 45.7 µM (inactive).

And the IC50 [1]?
Its IC50 is 48.7 µM.

And the IC90 [2]?
The IC90 was 54.7 µM.

What about the IC90 [3] of the same compound?
Its IC90 is 51.4 µM.

How did the IC50 turn out when `COc1ccc(CNC(=O)C2CCN(S(=O)(=O)c3c(C)noc3/C=C/N(C)C)CC2)cc1` was run?
The IC50 was > 100 µM (inactive).

What about the IC50 [1] of the same compound?
The IC50 was greater than 100 µM.

And the IC90 [2]?
Its IC90 is greater than 100 µM.

What about the IC90 [3] of the same compound?
Its IC90 is greater than 100 µM.

Which IC50 does the source give for `COc1cccc(NS(=O)(=O)c2ccc3[nH]cc(C(=O)NCCC(C)C)c(=O)c3c2)c1` here?
Its IC50 is > 100 µM (inactive).

What about the IC50 [1] of the same compound?
Its IC50 is greater than 100 µM.

And the IC90 [2]?
Its IC90 is greater than 100 µM.

What about the IC90 [3] of the same compound?
The IC90 was greater than 100 µM.

How did the IC50 turn out when `CCOC(=O)C1CSC(CC(=O)Nc2ccc(Cl)c(Cl)c2)C(=O)N1` (configuration not stated) was run?
Its IC50 is 10.8 µM.

What about the IC50 [1] of the same compound?
Its IC50 is 47.7 µM.

And the IC90 [2]?
The IC90 was 54.3 µM.

What about the IC90 [3] of the same compound?
Its IC90 is 35.4 µM.

What does the source list for `COC(=O)C1=C(C)NC(=O)/C1=C\c1cc(C)n(-c2c(C)cccc2C)c1C`?
IC50: 88 µM (inactive); IC50 [1]: > 100 µM; IC90 [2]: > 100 µM; IC90 [3]: 99.8 µM

With `C/C(CC(=O)Nc1c(C)cc(C)cc1C)=N\NC(=O)c1cnccn1` as the compound, how does the IC50 read?
The IC50 was 5.21 µM.

What about the IC50 [1] of the same compound?
Its IC50 is 28.7 µM.

What about the IC90 [2] of the same compound?
The IC90 was 58.5 µM.

And the IC90 [3]?
The IC90 was 17.4 µM.
